Measurements published in PMC8321095, “Species-Specific Effects of Cation Channel TRPM4 Small-Molecule Inhibitors” (Frontiers in Pharmacology, 2021).

Columns and labels:
Format in all cases: cell-based
[1] = target: T1, mouse TRPM4 (Mus musculus, UniProt Q7TN37); assay: Inside-out patch clamp on TsA-201 cells stably expressing mouse TRPM4; settings: for effect of CBA- and NBA-derived compounds on mouse TRPM4 current: 10 μM, applied intracellularly, n ≥ 6
T1 construct: expressed in transfected cells
Experimental: (§1) They were kept at 37°C with 5% CO2 in a humidified atmosphere incubator.
Electrophysiological recordings were performed in the inside-out patch-clamp configuration with patch pipettes (1 and 2 μm tip opening) pulled from 1.5 mm borosilicate glass capillaries (Zeitz-Instruments GmbH, München, Germany) using micropipette puller P 97 (Sutter Instruments, Novato, CA, United States). The tips were polished to have a pipette resistance of 2–4 MΩ in the bath solution. The pipette solution contained (in mM) 150 NaCl, 10 HEPES, and 2 CaCl2 (pH 7.4 with NaOH). The bath solution contained (in mM) 150 NaCl, 10 HEPES, 2 HEDTA (pH 7.4 with NaOH), and no Ca^2+. […] Bath solution with 0 and 300 μM Ca^2+ concentrations were applied to cells by a modified rapid solution exchanger (Perfusion Fast-Step SF-77B; Warner Instruments Corp. CT, United States). […] Data were low-pass filtered at 5 kHz and sampled at 10 kHz. Experiments were performed at room temperature (20–25°C). The holding potential was 0 mV. For measuring steady-state currents, the stimulation protocol consisted of two sweeps with a total duration of 1,000 ms, the first sweep at −100 mV for 500 ms and the second at +100 mV for 500 ms (Figure 2). […] The I-V relationships (IV curves) have been determined using an I-V protocol from −100 mV to +100 mV for 500 ms with a difference of 20 mV between each sweep (cf. Figure 6). The IV curves have been normalised to the maximum current. No fit was applied.
After obtaining inside-out membrane patches, the presence of TRPM4 in the patch membrane was confirmed by switching the perfusion solution without calcium at the intracellular side of the membrane to a solution containing 300 μM calcium, which activates TRPM4 and triggers the current. Once the TRPM4 currents were activated and stabilised for intracellular compound application, the perfusion solution containing 300 μM calcium and either the compound or free adenosine triphosphate (ATP) was applied. For extracellular application, the compounds were added to the […] (pipette) solution.
Electrophysiology data were analysed using IGOR PRO 6 (WaveMetrics, Lake Oswego, United States), Normalized current percentage inhibition was calculated as follows ([activated current at 300 μM calcium]—[activated current at 300 μM calcium with compound]) * 100/[activated current at 300 µM calcium]. Concentration-response curves were fitted using the Hill equation fit parameter of IGOR (NC = NCmax [Cmpd]nH/([Cmpd]nH + EC50 nH)) where NC is normalized current [Cmpd] is compound concentration and nH is the Hill coefficient. Data are presented as mean ± SEM except for Figures 3 and 7, where the data have been normalised to 100 for the current recorded in the presence of 300 µM calcium only. Statistically significant differences conditions were determined using a non-parametric test with a Mann-Whitney post-test.

[2] = system: TsA-201 cells; assay: Cytotoxicity test (trypan blue cell counting); settings: Homo sapiens, tsA201, 24 h, read-out: EC50, concentration of the inhibitor required to induce 50% of cell death
Experimental: Untransfected TsA-201 cells were seeded in a 96-wells plate at a concentration of 10,000 cells per well with DMEM and incubated at 37°C and 5% CO2 in a humidified atmosphere incubator overnight. […] After incubation, the cells were washed and incubated in 0.01% trypsin-EDTA until the cellular layer was completely detached. Cells were centrifuged down, and the pellet resuspended in 1 ml PBS. Cells were then diluted in 1 part of 0.4% trypan blue and 1-part cell suspension. This mixture was incubated for 3 min at room temperature. Finally, the unstained (viable) and stained (nonviable) cells were counted in the haemocytometer (BRAND® counting chamber BLAUBRAND®, Wertheim, Germany).

[3] = target: T2, human TRPM4 (Homo sapiens, UniProt Q8TD43); assay: Inside-out patch clamp on TsA-201 cells stably expressing human TRPM4; settings: 300 μM calcium, +100 mV
T2 construct: expressed in transfected cells
Experimental: as §1
Electrophysiological recordings were performed in the inside-out patch-clamp configuration with patch pipettes (1 and 2 μm tip opening) pulled from 1.5 mm borosilicate glass capillaries (Zeitz-Instruments GmbH, München, Germany) using micropipette puller P 97 (Sutter Instruments, Novato, CA, United States). The tips were polished to have a pipette resistance of 2–4 MΩ in the bath solution. The pipette solution contained (in mM) 150 NaCl, 10 HEPES, and 2 CaCl2 (pH 7.4 with NaOH). The bath solution contained (in mM) 150 NaCl, 10 HEPES, 2 HEDTA (pH 7.4 with NaOH), and no Ca^2+. […] The I-V relationships (IV curves) have been determined using an I-V protocol from −100 mV to +100 mV for 500 ms with a difference of 20 mV between each sweep (cf. Figure 6). […]
Electrophysiology data were analysed using IGOR PRO 6 (WaveMetrics, Lake Oswego, United States), Normalized current percentage inhibition was calculated as follows ([activated current at 300 μM calcium]—[activated current at 300 μM calcium with compound]) * 100/[activated current at 300 µM calcium]. […] Data are presented as mean ± SEM except for Figures 3 and 7, where the data have been normalised to 100 for the current recorded in the presence of 300 µM calcium only. […]

[4] = bath solution, 300 μM calcium, +100 mV

T1 sequence (Q7TN37 whole entry): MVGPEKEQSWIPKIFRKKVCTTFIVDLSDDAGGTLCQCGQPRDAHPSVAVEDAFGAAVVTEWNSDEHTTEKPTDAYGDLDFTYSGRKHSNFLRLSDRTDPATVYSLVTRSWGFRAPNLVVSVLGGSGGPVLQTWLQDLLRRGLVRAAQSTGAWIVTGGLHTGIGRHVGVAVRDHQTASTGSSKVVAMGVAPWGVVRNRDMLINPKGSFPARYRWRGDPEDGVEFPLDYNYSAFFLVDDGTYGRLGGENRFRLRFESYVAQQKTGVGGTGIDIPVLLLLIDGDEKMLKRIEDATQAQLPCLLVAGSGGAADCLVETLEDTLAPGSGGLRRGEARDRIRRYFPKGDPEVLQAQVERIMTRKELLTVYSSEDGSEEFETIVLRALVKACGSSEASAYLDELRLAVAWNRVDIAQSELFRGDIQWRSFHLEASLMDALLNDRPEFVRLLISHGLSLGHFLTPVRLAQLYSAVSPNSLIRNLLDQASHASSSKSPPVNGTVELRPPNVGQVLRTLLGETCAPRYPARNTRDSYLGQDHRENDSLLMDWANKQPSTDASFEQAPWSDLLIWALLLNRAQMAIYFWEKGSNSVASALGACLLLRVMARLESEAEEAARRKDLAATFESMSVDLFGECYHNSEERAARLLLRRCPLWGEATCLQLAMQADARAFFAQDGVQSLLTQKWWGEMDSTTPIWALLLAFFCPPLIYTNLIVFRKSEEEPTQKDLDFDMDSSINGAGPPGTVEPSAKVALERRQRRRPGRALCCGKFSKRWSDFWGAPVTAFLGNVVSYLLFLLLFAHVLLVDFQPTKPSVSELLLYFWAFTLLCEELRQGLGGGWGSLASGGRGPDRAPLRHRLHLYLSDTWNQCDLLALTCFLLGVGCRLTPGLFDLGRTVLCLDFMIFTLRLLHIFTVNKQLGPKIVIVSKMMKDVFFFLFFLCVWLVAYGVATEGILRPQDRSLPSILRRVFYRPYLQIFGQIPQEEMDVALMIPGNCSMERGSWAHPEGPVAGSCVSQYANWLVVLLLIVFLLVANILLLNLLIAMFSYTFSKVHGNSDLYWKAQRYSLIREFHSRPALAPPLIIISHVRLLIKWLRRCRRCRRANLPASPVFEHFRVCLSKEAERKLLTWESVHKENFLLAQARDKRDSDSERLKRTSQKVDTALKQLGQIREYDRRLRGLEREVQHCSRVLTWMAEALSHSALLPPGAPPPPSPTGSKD
T2 sequence (Q8TD43 whole entry): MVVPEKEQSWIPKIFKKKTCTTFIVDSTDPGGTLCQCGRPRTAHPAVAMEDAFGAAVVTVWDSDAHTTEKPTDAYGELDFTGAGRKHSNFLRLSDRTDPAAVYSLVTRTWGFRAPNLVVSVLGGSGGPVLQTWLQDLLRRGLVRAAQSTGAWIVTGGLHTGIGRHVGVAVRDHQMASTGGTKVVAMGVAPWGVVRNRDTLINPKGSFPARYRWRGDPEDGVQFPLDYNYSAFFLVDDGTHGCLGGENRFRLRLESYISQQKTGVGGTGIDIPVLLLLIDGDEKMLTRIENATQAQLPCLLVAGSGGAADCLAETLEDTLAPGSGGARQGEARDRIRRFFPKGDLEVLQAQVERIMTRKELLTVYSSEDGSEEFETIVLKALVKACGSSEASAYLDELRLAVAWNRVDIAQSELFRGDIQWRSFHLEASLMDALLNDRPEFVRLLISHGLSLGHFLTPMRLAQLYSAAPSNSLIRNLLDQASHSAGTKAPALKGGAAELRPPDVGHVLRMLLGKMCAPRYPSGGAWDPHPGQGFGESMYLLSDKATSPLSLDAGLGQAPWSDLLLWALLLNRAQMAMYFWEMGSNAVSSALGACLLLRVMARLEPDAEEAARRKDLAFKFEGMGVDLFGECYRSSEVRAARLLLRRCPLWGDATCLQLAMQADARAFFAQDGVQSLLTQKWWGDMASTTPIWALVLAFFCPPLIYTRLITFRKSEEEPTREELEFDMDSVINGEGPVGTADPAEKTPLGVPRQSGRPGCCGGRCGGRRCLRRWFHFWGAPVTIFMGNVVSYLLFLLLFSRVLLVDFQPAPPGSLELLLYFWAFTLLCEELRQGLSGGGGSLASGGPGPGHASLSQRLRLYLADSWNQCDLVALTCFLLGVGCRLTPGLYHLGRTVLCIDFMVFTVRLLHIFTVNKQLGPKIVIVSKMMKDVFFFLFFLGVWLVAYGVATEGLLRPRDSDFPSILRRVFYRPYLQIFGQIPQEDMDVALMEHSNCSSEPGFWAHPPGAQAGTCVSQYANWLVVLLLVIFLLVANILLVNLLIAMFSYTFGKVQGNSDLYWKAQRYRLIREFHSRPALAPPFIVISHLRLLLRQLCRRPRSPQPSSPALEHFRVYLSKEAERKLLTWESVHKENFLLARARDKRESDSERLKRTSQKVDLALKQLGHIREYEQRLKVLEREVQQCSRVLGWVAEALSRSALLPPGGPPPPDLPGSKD

## O=C(COc1cccc2c1CCCC2)Nc1cc(Cl)ccc1C(=O)O [NBA-d2, 4-chloro-2-(2-((5,6,7,8-tetrahydronaphthalen-1-yl)oxy)acetamido) benzoic acid]
[1]; [4]
  effect of CBA- and NBA-derived compounds on mouse TRPM4 current: could inhibit mouse TRPM4 currents

## Oc1cc2ccccc2c2ccccc12 [9-phenanthrol]
[2]
  EC50: ~20000 nM
[3]; 30 μM, extracellular or intracellular application
  effect on human TRPM4 sodium current: inhibited human TRPM4 sodium current with a similar efficacy independently of the application side
[1]; 0.1 μM versus 100 μM, intracellular application, n = 6
  concentration dependence of potentiation of mouse TRPM4 current: more pronounced with low concentrations
[1]; 30 μM in bath solution, 300 μM calcium, +100 mV
  effect on mouse TRPM4 current, intracellular application: increased the current
[1]; 30 μM in pipette solution, 300 μM calcium, +100 mV
  effect on mouse TRPM4 current, extracellular application: decreased the mouse TRPM4 current
[1]; 30 μM, intracellular application, with or without 300 μM calcium
  calcium dependence of the increase of mouse TRPM4 current: observed only in the presence of 300 μM calcium

## Nc1ncnc2c1ncn2[C@@H]1O[C@H](COP(=O)(O)OP(=O)(O)OP(=O)(O)O)[C@@H](O)[C@H]1O [ATP, adenosine triphosphate]
[3]; inside-out patch, bath solution, Hill fit, n = 6, read-out: IC50 on human TRPM4 current, intracellular application
  IC50: 800 nM
[1]; inside-out patch, bath solution, 300 μM calcium, +100 mV, Hill fit, n = 6, read-out: IC50 on mouse TRPM4 current, intracellular application
  IC50: 1400 nM

## Cc1cc(Cl)ccc1OC(C)C(=O)Nc1cc(Cl)ccc1C(=O)O (centres unmarked) [CBA-d1]
[1]; [4]
  effect of CBA- and NBA-derived compounds on mouse TRPM4 current: did not decrease the mouse TRPM4 currents

## O=C(COc1ccc(Cl)c2ccccc12)Nc1cc(Cl)ccc1C(=O)O [NBA-d1, 4-chloro-2-(2-((4-chloronaphthalen-1-yl)oxy)acetamido) benzoic acid]
[1]; [4]
  effect of CBA- and NBA-derived compounds on mouse TRPM4 current: could inhibit mouse TRPM4 currents
